Experimental data reported in patent US20230331707A1, “PROGRAMMED CELL NECROSIS INHIBITOR, PREPARATION METHOD THEREFOR, AND USE THEREOF” (Shanghai Institute of Organic Chemistry, Chinese Academy of …, priority 2020, published 2023).
Where two headings read alike, the source gives them in different places.

What was measured:
[1] = system: L929 cells; experiment: Inhibition of TNF-induced programmed necrosis of L929 cells (Cell Titer-Glo viability); format: cell-based, mouse; conditions: Mus musculus, L929, L929 cells
Excerpt: (§1) The adopted biological assay protocol was: the effect of compounds on programmed necroptosis of TNF-induced FADD (Fas-Associated Death Domain) deficient Jurkat cells and L929 cells.
(§2) In order to verify the inhibitory effect of the compounds of the present invention on programmed cell necrosis at the cellular level, cell types that is closely related to the RIP1 pathway, namely FADD deficient Jurkat cells (human peripheral blood leukemia T cell strain) and L929 cells, were selected. Two different stimulation methods were used: tumor necrosis factor (TNFα) was used alone, or TNFα was used in combination with mitochondria-derived cysteine aspartate activator (SMAC) SM164. Cells viability was calculated by detecting chemiluminescence values, thereby obtaining the biological activity of the compound on the inhibition of programmed cell necrosis.
(§3) Methods: FADD deficient Jurkat cells: FADD deficient Jurkat cells (human peripheral blood leukemia T cell line) were cultured in vitro. After growing to the logarithmic growth phase, the cells were collected, centrifuged at 1000 rpm for 5 min, the supernatant was discarded, and the cell concentration was adjusted to 2.5×10^5/mL. Cells were seeded into 384-well plates, 40 μl per well. 5 μL of SM164 (50 nM) diluted in cell culture medium and 5 μL of each compound were added to the corresponding wells. After pretreatment at 37° C. for 1 h, 5 μL of TNFα (50 ng/mL) diluted in cell culture medium was added to each well of the stimulation group, and 5 μL of the culture medium was added to the control group. The plate was cultured in a cell incubator (37° C., 5% CO2) for 14 h, and […] of Cell Titer-Glo solution was added to each well, then incubated for 30 min at room temperature, and intracellular ATP level was measured by detecting luminescence. The unstimulated DMSO control wells were taken as 100% cell viability. L929 cells: The L929 cells (mouse fibroblasts) were cultured in vitro, digested and diluted to 6.25×10^4/ml, and the cells were seeded into 384-well plates, 40 μl per well. The plate was placed in a cell incubator (37° C., 5% CO2) for 12 hours. 5 μL of SM164 (500 nM) diluted in cell culture medium and 5 μL of each compound were added to the corresponding wells. After pretreatment at 37° C. for 1 h, 5 μL of TNFα (500 ng/mL) diluted in cell culture medium was added to each well of the stimulation group, and 5 μL of the culture medium was added to the control group. After the plate was cultured for 14 h in a cell incubator (37° C., 5% CO2), 15 μl of Cell Titer-Glo solution was added to each well. The plate was incubated at room temperature for 30 min, and intracellular ATP level was measured by detecting luminescence. The unstimulated DMSO control wells were taken as 100% cell viability. EC50 values of the compounds were calculated using Prism Graphpad statistical software.

[2] = system: FADD−/− Jurkat cells; experiment: Inhibition of TNF-induced programmed necrosis of FADD deficient Jurkat cells (Cell Titer-Glo viability); format: cell-based; conditions: for EC50: FADD−/− Jurkat cells; for activity of inhibition of programmed necrosis compared with GSK2982772: human FADD-deficient Jurkat cells, TNFα alone or in combination with SM164
Excerpt: as §1, §2, §3

[3] = stimulated with TNFα + SM164, read-out: EC50 (μM) L929 cells (mouse) TNFα + SM164
[4] = stimulated with TNFα alone, read-out: EC50 (μM) L929 cells (mouse) TNFα
[5] = Homo sapiens, Jurkat, 14 h, stimulated with TNFα + SM164, read-out: EC50 (μM) FADD−/− Jurkat cells (human) TNFα + SM164
[6] = Homo sapiens, Jurkat, stimulated with TNFα alone, read-out: EC50 (μM) FADD−/− Jurkat cells (human) TNFα

| Structure (SMILES) | EC50 [1, 3] [nM] | EC50 [1, 4] [nM] | EC50 [2, 5] [nM] | EC50 [2, 6] [nM] | activity of inhibition of programmed necrosis compared with GSK2982772 [2] | EC50 ([2]; stimulated with TNFα + SM164, read-out: EC50 (μM) FADD−/− Jurkat cells (human) TNFα + SM164) [nM] | EC50 ([2]; stimulated with TNFα alone, read-out: EC50 (μM) FADD−/− Jurkat cells (human) TNFα) [nM] |
| --- | --- | --- | --- | --- | --- | --- | --- |
| CCCn1nc(C(=O)NCc2ccc(-n3cnc4cc(C(=O)NC)ccc43)cc2)cc1Cc1ccccc1 [XHJ-4-48] | > 10000 | 3010 | 738 | 109 | – | – | – |
| C[C@@H](NC(=O)c1cnn(C)c1Cc1ccccc1)c1ccc(-n2cnc3c(N)ncnc32)cc1 [QY-12-97] | 219 | 51.9 | 132 | 36.1 | – | – | – |
| Cn1nc(C(=O)NCc2ccc(-n3ccc4c(N)nccc43)cc2)cc1Cc1ccccc1 [ZSQ-16-3] | > 10000 | 2320 | > 10000 | 361 | – | – | – |
| CC(c1ccc(-n2cnc3c(N)ncnc32)cc1)N1CCc2nn(C)c(Cc3ccccc3)c2C1=O (centres unmarked) [QY-12-90] | 42.7 | 2.41 | 0.813 | 0.13 | – | – | – |
| CNC(=O)c1ccc2c(c1)ncn2-c1ccc(CNC(=O)c2cc(Cc3ccccc3)n(C)n2)cc1 [QY-7-2B, 1-(4-((5-benzyl-1-methyl-1H-pyrazole-3-carboxamido)methyl)phenyl)-N-methyl-1H-benzo[d]imidazol-5-carboxamide] | 2020 | 312 | 43.9 | 5.12 | – | – | – |
| CNC(=O)c1ccc2c(c1)ncn2-c1ccc(CC(=O)N2CCCC2c2ccccc2)cc1 (centres unmarked) [QY-7-65, N-methyl-1-(4-(2-oxo-2-(2-phenylpyrrolidin-1-yl)ethyl)phenyl)-1H-benzo[d]imidazol-5-carboxamide] | > 10000 | > 10000 | > 10000 | > 10000 | – | – | – |
| CNC(=O)c1ccc2c(c1)ncn2-c1ccc(CNC(=O)c2ccc(F)n2Cc2ccccc2)cc1 [QY-12-47] | 34.4 | 6 | 17.4 | 1.74 | – | – | – |
| CNC(=O)c1ccc2c(c1)ncn2-c1ccc(CC(=O)NC(C)(C)C(=O)N2CCCC2c2ccc(C)cc2)cc1 (centres unmarked) [QY-8-42] | > 10000 | > 10000 | > 10000 | > 10000 | – | – | – |
| Nc1ncnc2c1ccn2-c1ccc(CNC(=O)c2cc(Cc3ccccc3)on2)cc1 [QY-8-48] | > 10000 | > 10000 | > 10000 | 972 | – | – | – |
| C[C@@H](c1ccc(-n2cnc3c(N)ncnc32)cc1)N1CCc2nn(C)c(Cc3ccccc3)c2C1=O [QY-13-33] | 3.02 | 1.32 | 2.85 | 0.296 | stronger activity | – | – |
| CNC(=O)c1ccc2c(c1)ncn2-c1ccc(CNC(=O)c2cnn(C)c2Cc2ccccc2)cc1 [QY-10-73] | 76.7 | 20 | 5.2 | 0.0697 | – | – | – |
| COc1ccc2ncn(-c3ccc(CNC(=O)c4nnn(C)c4Cc4ccccc4)cc3)c2n1 [ET-0935] | 0.001 | 0.001 | 0.244 | 0.0235 | stronger activity | – | – |
| Cn1ncc(C(=O)NCc2ccc(-c3ncnc4[nH]ccc34)cc2)c1Cc1ccccc1 [QY-11-80] | 3460 | 1970 | 482 | 35 | – | – | – |
| COc1ccc2c(c1)ncn2-c1ccc(CNC(=O)c2cnn(C)c2Cc2ccccc2)cc1 [QY-12-4] | – | – | – | – | – | 128 | 17.6 |
| Nc1ncnc2c1ccn2-c1ccc(CNC(=O)Cc2cccc(OC(F)(F)F)c2)cc1 [QY-9-69, O—N-(4-(4-amino-7H-pyrrolo[2,3-d]pyrimidine-7-yl)benzyl)-2-(3-(trifluoromethoxy)phenyl)acetamide] | > 10000 | 567 | > 10000 | > 10000 | – | – | – |
| CNC(=O)c1ccc2c(c1)ncn2-c1ccc(CC(=O)NCc2c[nH]c3ccccc23)cc1 [QY-5-35, 1-(4-(2-(((1H-indole-3-yl)methyl)amino)-2-oxoethyl)phenyl)-N-methyl-1H-benzo[d]imidazol-5-formamide] | > 10000 | > 10000 | > 10000 | 2490 | – | – | – |

| Structure (SMILES) | EC50 [1, 3] [nM] | EC50 [1, 4] [nM] | EC50 [2, 5] [nM] | EC50 [2, 6] [nM] | activity of inhibition of programmed necrosis compared with GSK2982772 [2] | EC50 ([2]; stimulated with TNFα + SM164, read-out: EC50 (μM) FADD−/− Jurkat cells (human) TNFα + SM164) [nM] | EC50 ([2]; stimulated with TNFα alone, read-out: EC50 (μM) FADD−/− Jurkat cells (human) TNFα) [nM] |
| --- | --- | --- | --- | --- | --- | --- | --- |
| Nc1ncnc2c1ncn2-c1ccc(CNC(=O)c2n[nH]c3ncc(C(F)(F)C(F)(F)F)cc23)cc1 [QY-9-77, N-(4-(6-amino-9H-purin-9-yl)benzyl)-5-(perfluoroethyl)-1H-pyrazolo[3,4-b]pyridine-3-carboxamide] | 5000 | 344 | 171 | 9.04 | – | – | – |
| Nc1ncnc2c1ncn2-c1ccc(CNC(=O)Cc2cccc(OC(F)(F)F)c2)cc1 [QY-9-70] | 6300 | 350 | > 10000 | 2960 | – | – | – |
| CNC(=O)c1ccc2c(c1)ncn2-c1ccc(CNC(=O)c2nnc(Cc3ccccc3)o2)cc1 [QY-7-32, 5-Benzyl-N-(4-(5-(methylcarbamoyl)-1H-benzo[d]imidazol-1-yl)benzyl)-1,3,4-oxadiazol-2-carboxamide] | > 10000 | > 10000 | 1520 | 185 | – | – | – |
| Nc1ncnc2c1ccn2-c1ccc(CNC(=O)c2nnn(Cc3ccccc3)n2)cc1 [QY-8-58, N-(4-(4-amino-7H-pyrrolo[2,3-d]pyrimidin-7-yl)benzyl)-2-benzyl-2H-tetrazol-5-carboxamide] | > 10000 | > 10000 | 577 | 196 | – | – | – |
| C[C@H](NC(=O)c1c(Cl)nn(C)c1Cc1ccccc1)c1ccc(-n2cnc3c(N)ncnc32)cc1 [QY-13-29] | 0.462 | 0.317 | 0.318 | 0.0916 | – | – | – |
| Cn1nc(C(=O)NCc2ccc(-n3ccc4c(N)ncnc43)cc2)cc1Cc1ccccc1 [QY-10-21, N-(4-(4-amino-7H-pyrrolo[2,3-d]pyrimidin-7-yl)benzyl)-5-benzyl-1-methyl-1H-pyrazol-3-carboxamide] | > 10000 | > 10000 | 299 | 49 | – | – | – |
| Cn1nc2c(c1Cc1ccccc1)C(=O)N(Cc1ccc(-n3cnc4c(N)ncnc43)cc1)CC2 [ZSQ-22-96] | 38.6 | 8.38 | 2.26 | 0.203 | – | – | – |
| CNC(=O)c1ccc2c(c1)ncn2-c1ccc(CC(=O)N(C)Cc2cc(F)cc(F)c2F)cc1 [QY-5-40, N-methyl-1-(4-(2-(methyl(2,3,5-trifluorobenzyl)amino)-2-oxoethyl)phenyl)-1H-benzo[d]imidazol-5-formamide] | > 10000 | 5000 | > 10000 | 2500 | – | – | – |
| Cn1ncc(C(=O)NC(C)(C)c2ccc(-n3cnc4c(N)ncnc43)cc2)c1Cc1ccccc1 [QY-12-102] | 6960 | 550 | 28.5 | 7.52 | – | – | – |
| C[C@H](NC(=O)c1cnn(C)c1Cc1ccccc1)c1ccc(-n2cnc3c(N)ncnc32)cc1 [QY-13-31] | 0.553 | 0.437 | 0.305 | 0.084 | stronger activity | – | – |
| CNC(=O)c1ccc2c(c1)ncn2-c1ccc(NC(=O)c2nocc2Cc2ccccc2)cc1 [QY-6-15] | > 10000 | > 10000 | > 10000 | 1370 | – | – | – |
| CNC(=O)c1ccc2c(ccn2-c2ccc(CNC(=O)c3ncc(Cc4ccccc4)o3)cc2)c1 [XHJ-2-88] | 3980 | 831 | 380 | 70.1 | – | – | – |
| CNC(=O)c1ccc2c(cnn2-c2ccc(CNC(=O)c3cnn(C)c3Cc3ccccc3)cc2)c1 [QY-11-104] | – | – | 48.4 | 4.43 | – | – | – |
| C[C@H](NC(=O)c1nnn(C)c1Cc1ccccc1)c1ccc(-n2cnc3c(N)ncnc32)cc1 [QY-13-50] | – | – | 0.001 | 0.001 | – | – | – |
| Nc1ncnc2c1ncn2-c1ccc(CNC(=O)c2cncn2Cc2ccccc2)cc1 [ZSQ-21-14] | – | – | > 10000 | 290 | – | – | – |
